Measured values published in patent US20120156771A1, “FUNCTIONAL DISRUPTION OF AN IMMUNOGLOBULIN GENE IN AN AVIAN EMBRYONIC STEM CELL” (Origen Therapeutics, Inc., priority 2002, published 2012).

Test system: chicken embryonic stem cells
Experiment: Titration kill curve: morphology of cES cells under puromycin or neomycin selection
Assay type: cell-based
Parameters: key to Morphology of cES cells: ES: ES cells are present.; diff: ES cells are differentiated.; gone: no morphologically recognizable cells are present
Protocol: In a preferred embodiment, the concentration of puromycin required for selecting transfected cells is calculated as a titration kill curve. Titration kill curves for chicken embryonic stem cells are established by exposing cells in culture to puromycin concentrations varying from 0.0 to 1.0 μg/ml for 10 days (Table 7) and neomycin concentrations varying from 0.0 to 200 μg/ml (Table 8). The medium is changed every 2 days and fresh puromycin or neomycin is added. […] Puromycin concentrations of 0.3-1.0 μg/ml are used for selection of the transfected cultures. Neomycin concentrations over 40 μg/ml eliminated all cES cells within 7 days (Table 8).

COc1ccc(C[C@H](N)C(=O)N[C@H]2[C@@H](O)[C@H](n3cnc4c(N(C)C)ncnc43)O[C@@H]2CO)cc1 [puromycin]
Presence of ES cells in wells (0.3 μg/ml puromycin, after 3 changes of medium with fresh puromycin over a six day period): absent from all wells | Morphology of cES cells (puromycin 0.1 μg/ml, day 1 under selection): ES | Morphology of cES cells (puromycin 0.1 μg/ml, day 2 under selection): ES | Morphology of cES cells (puromycin 0.1 μg/ml, day 3 under selection): ES | Morphology of cES cells (puromycin 0.1 μg/ml, day 4 under selection): ES | Morphology of cES cells (puromycin 0.1 μg/ml, day 5 under selection): ES | Morphology of cES cells (puromycin 0.1 μg/ml, day 6 under selection): ES | Morphology of cES cells (puromycin 0.1 μg/ml, day 7 under selection): ES | Morphology of cES cells (puromycin 0.1 μg/ml, day 8 under selection): ES | Morphology of cES cells (puromycin 0.1 μg/ml, day 9 under selection): ES | Morphology of cES cells (puromycin 0.1 μg/ml, day 10 under selection): ES | Morphology of cES cells (puromycin 0.2 μg/ml, day 1 under selection): ES | Morphology of cES cells (puromycin 0.2 μg/ml, day 2 under selection): ES | Morphology of cES cells (puromycin 0.2 μg/ml, day 3 under selection): ES | Morphology of cES cells (puromycin 0.2 μg/ml, day 4 under selection): ES | Morphology of cES cells (puromycin 0.2 μg/ml, day 5 under selection): ES | Morphology of cES cells (puromycin 0.2 μg/ml, day 6 under selection): ES | Morphology of cES cells (puromycin 0.2 μg/ml, day 7 under selection): ES | Morphology of cES cells (puromycin 0.2 μg/ml, day 8 under selection): ES | Morphology of cES cells (puromycin 0.2 μg/ml, day 9 under selection): ES | Morphology of cES cells (puromycin 0.2 μg/ml, day 10 under selection): ES | Morphology of cES cells (puromycin 0.25 μg/ml, day 1 under selection): ES | Morphology of cES cells (puromycin 0.25 μg/ml, day 2 under selection): ES | Morphology of cES cells (puromycin 0.25 μg/ml, day 3 under selection): ES | Morphology of cES cells (puromycin 0.25 μg/ml, day 4 under selection): ES | Morphology of cES cells (puromycin 0.25 μg/ml, day 5 under selection): ES | Morphology of cES cells (puromycin 0.25 μg/ml, day 6 under selection): diff | Morphology of cES cells (puromycin 0.25 μg/ml, day 7 under selection): diff | Morphology of cES cells (puromycin 0.3 μg/ml, day 1 under selection): ES | Morphology of cES cells (puromycin 0.3 μg/ml, day 2 under selection): ES | Morphology of cES cells (puromycin 0.3 μg/ml, day 3 under selection): diff | Morphology of cES cells (puromycin 0.3 μg/ml, day 6 under selection): gone | Morphology of cES cells (puromycin 0.3 μg/ml, day 7 under selection): gone | Morphology of cES cells (puromycin 0.3 μg/ml, day 8 under selection): gone | Morphology of cES cells (puromycin 0.3 μg/ml, day 9 under selection): gone | Morphology of cES cells (puromycin 0.3 μg/ml, day 10 under selection): gone | Morphology of cES cells (puromycin 0.4 μg/ml, day 1 under selection): ES | Morphology of cES cells (puromycin 0.4 μg/ml, day 2 under selection): diff | Morphology of cES cells (puromycin 0.4 μg/ml, day 3 under selection): gone | Morphology of cES cells (puromycin 0.4 μg/ml, day 4 under selection): gone | Morphology of cES cells (puromycin 0.4 μg/ml, day 5 under selection): gone | Morphology of cES cells (puromycin 0.4 μg/ml, day 6 under selection): gone | Morphology of cES cells (puromycin 0.4 μg/ml, day 7 under selection): gone | Morphology of cES cells (puromycin 0.4 μg/ml, day 8 under selection): gone | Morphology of cES cells (puromycin 0.4 μg/ml, day 9 under selection): gone | Morphology of cES cells (puromycin 0.4 μg/ml, day 10 under selection): gone | Morphology of cES cells (puromycin 0.5 μg/ml, day 1 under selection): diff | Morphology of cES cells (puromycin 0.5 μg/ml, day 2 under selection): gone | Morphology of cES cells (puromycin 0.5 μg/ml, day 3 under selection): gone | Morphology of cES cells (puromycin 0.5 μg/ml, day 4 under selection): gone | Morphology of cES cells (puromycin 0.5 μg/ml, day 5 under selection): gone | Morphology of cES cells (puromycin 0.5 μg/ml, day 6 under selection): gone | Morphology of cES cells (puromycin 0.5 μg/ml, day 7 under selection): gone | Morphology of cES cells (puromycin 0.5 μg/ml, day 8 under selection): gone | Morphology of cES cells (puromycin 0.5 μg/ml, day 9 under selection): gone | Morphology of cES cells (puromycin 0.5 μg/ml, day 10 under selection): gone | Morphology of cES cells (puromycin 0.6 μg/ml, day 1 under selection): diff | Morphology of cES cells (puromycin 0.6 μg/ml, day 2 under selection): gone | Morphology of cES cells (puromycin 0.6 μg/ml, day 3 under selection): gone | Morphology of cES cells (puromycin 0.6 μg/ml, day 4 under selection): gone | Morphology of cES cells (puromycin 0.6 μg/ml, day 5 under selection): gone | Morphology of cES cells (puromycin 0.6 μg/ml, day 6 under selection): gone | Morphology of cES cells (puromycin 0.6 μg/ml, day 7 under selection): gone | Morphology of cES cells (puromycin 0.6 μg/ml, day 8 under selection): gone | Morphology of cES cells (puromycin 0.6 μg/ml, day 9 under selection): gone | Morphology of cES cells (puromycin 0.6 μg/ml, day 10 under selection): gone | Morphology of cES cells (puromycin 0.7 μg/ml, day 1 under selection): diff | Morphology of cES cells (puromycin 0.7 μg/ml, day 2 under selection): gone | Morphology of cES cells (puromycin 0.7 μg/ml, day 3 under selection): gone | Morphology of cES cells (puromycin 0.7 μg/ml, day 4 under selection): gone | Morphology of cES cells (puromycin 0.7 μg/ml, day 5 under selection): gone | Morphology of cES cells (puromycin 0.7 μg/ml, day 6 under selection): gone | Morphology of cES cells (puromycin 0.7 μg/ml, day 7 under selection): gone | Morphology of cES cells (puromycin 0.7 μg/ml, day 8 under selection): gone | Morphology of cES cells (puromycin 0.7 μg/ml, day 9 under selection): gone | Morphology of cES cells (puromycin 0.7 μg/ml, day 10 under selection): gone | Morphology of cES cells (puromycin 0.8 μg/ml, day 1 under selection): gone | Morphology of cES cells (puromycin 0.8 μg/ml, day 2 under selection): gone | Morphology of cES cells (puromycin 0.8 μg/ml, day 3 under selection): gone | Morphology of cES cells (puromycin 0.8 μg/ml, day 4 under selection): gone | Morphology of cES cells (puromycin 0.8 μg/ml, day 5 under selection): gone | Morphology of cES cells (puromycin 0.8 μg/ml, day 6 under selection): gone | Morphology of cES cells (puromycin 0.8 μg/ml, day 7 under selection): gone | Morphology of cES cells (puromycin 0.8 μg/ml, day 8 under selection): gone | Morphology of cES cells (puromycin 0.8 μg/ml, day 9 under selection): gone | Morphology of cES cells (puromycin 0.8 μg/ml, day 10 under selection): gone
